The results in this text go back to a melting point compilation (Tetko et al.; mined from patent text by program, amines drawn as free bases though some values may be those of a salt).

A word on the melting point: it is the temperature of the solid-liquid transition.

The molecule `FC(F)(F)c1cccc(C(Cl)=Nc2nc(C(F)(F)F)c(I)s2)c1` returned a melting point of 136 to 137 °C.

On to `CCc1c(C(=O)C(N)=O)c2c([N+](=O)[O-])cccc2n1Cc1ccccc1`, for which the melting point lay within 207 to 208 °C.

Turning to `COc1ccc(-c2nnn(-c3cc(C)on3)c2N)cc1`, the melting point lay in the range of 136 to 141 °C.

`COC1=NC(c2cccc([N+](=O)[O-])c2)C(C(=O)OC(C)C)=C(C)N1` (stereo not drawn) came in with a melting point of 130 to 132 °C.

`CCOC(=O)c1c(O)c2sccc2[nH]c1=O`: the melting point was 218 °C.

Regarding `OCCNN=C(Cc1ccncc1)c1ccc(F)cc1`, the melting point lay within 122 to 123 °C.

The molecule `CC(=O)c1cc(S(=O)(=O)N(C)C)ccc1O` registered a melting point of 115 to 116 °C.

The molecule `Clc1ccc(C=NN=c2ccn(-c3ccc(Cl)cc3)cc2)cc1` showed a melting point of 165 to 166 °C.

`O=C(Nc1ccc(Oc2ccc(CCC(=O)N3CCN(Cc4ccc5c(c4)OCO5)CC3)cc2)nc1)c1ccc(C(F)(F)F)cc1` showed a melting point of 140 to 141 °C.

Regarding `Nc1ccccc1SCn1ccccc1=O`, the melting point fell in the range of 130 to 133 °C.

`Cc1cc(NC(=O)OC(C)(C)C)c(C)c2c1OC(C)(C)C2=O`: the melting point was in the range of 144 to 145 °C.

With `CCCCc1ccc(N(Cc2ccc(N(C)C)cc2)C(=O)C2CCCc3c(O)cccc32)cc1` (stereo not drawn), the melting point is 138 °C.

The molecule `CC(=O)OCC(=O)C1C(C)CC2C3CC(Cl)C4=CC(=O)CCC4(C)C3C(O)CC21C` (stereo not drawn) showed a melting point of 209 °C.

Regarding `Oc1ccc(C(O)CN2CCC(O)(c3cccc(F)c3)CC2)cc1` (stereo not drawn), the melting point came to 154 °C.

With `O=C(OC1CCCC1)c1ccc([N+](=O)[O-])c(OC2CCCC2)c1`, the melting point fell in the range of 45.5 to 46.5 °C.

`CCCOc1ccccc1NC=C1C(=O)N(c2ccc(C(=O)O)cc2)N=C1C`: the melting point was 260 °C.

In turn, `CN1CCN(c2ccccc2C=C2CCN(c3ccccc3)C2=O)CC1` yielded a melting point of 104 to 106 °C.

`CCOC(=O)c1ccc(OCc2ccc(C3CCN(C(=O)OC(C)(C)C)CC3)cn2)cc1F`: the melting point fell in the range of 92 to 95 °C.

`CC(=O)NC[C@@H]1CCCc2cc(S(=O)(=O)c3ccccc3)cc(F)c21` yielded a melting point of 152 to 154 °C.

Molecule `CC1CN(c2c(F)cc3c(=O)c(C(=O)O)cn(C4CC4)c3c2F)CC1NC(=O)OC(C)(C)C` (stereo not drawn) displayed a melting point of 230 to 231 °C.

In the case of `CS(=O)(=O)Nc1nc(CCN2CCC(c3c[nH]c4ccccc34)CC2)cs1`, the melting point is 141 to 144 °C.

In the case of `CCc1c(C)c2c(c(O)c1C/C=C(\C)CCC(=O)OC)C(=O)OC2`, the melting point is 116 °C.

The molecule `CN(C)c1nc2ccccc2nc1/C=C/c1nc(Cl)cc(N2CCCC2)n1` registered a melting point of 196 to 197 °C.

Take `CCOC(=O)CCCNc1ccccc1-c1ccccc1`: the melting point was in the range of 60 to 62 °C.

The molecule `CCOC(=O)C(=O)Nc1cc(C#N)c(Cl)cc1[N+](=O)[O-]` gave a melting point of 80 to 82 °C.

Molecule `O=C1N(Cc2ccc(C(F)(F)F)o2)c2ccccc2C12COc1cc3c(cc12)OCO3` (stereo not drawn) came in with a melting point of 103 to 105 °C.

Molecule `Cn1ncnc1COc1nc2c(cc1CC(C)(C)C)nnn2-c1ccccc1F` came in with a melting point of 130 to 133 °C.

On to `Cc1nc(Nc2ccc(F)c(Cl)c2)c2nc(N3CCC(N)CC3)ncc2n1`, for which the melting point is 156 to 163 °C.

In turn, `Cc1c(-c2ccccc2)oc2c(OCCCCCBr)cccc2c1=O` returned a melting point of 75 to 76 °C.

Molecule `CCC(O)(CC)[C@H](C[C@H](O)[C@H](CC1CCCCC1)NC(=O)OC(C)(C)C)C(=O)NC` returned a melting point of 152 to 155 °C.

Molecule `CCN(CC)CCOc1ccc(C2c3cc(OC)ccc3-c3ccc4ccccc4c32)cc1` (stereo not drawn) gave a melting point of 109 to 115 °C.

`CCCCNc1nc(N)nc(NCCCC)n1` returned a melting point of 73 °C.

In turn, `CC(C)(C)OC(=O)N1C(=O)[C@H](O)[C@@H]1CC1CCCCC1` registered a melting point of 105 to 106 °C.

As for `S=c1n(CN2CCCC2)nc(-c2ccncc2)n1-c1ccccc1`, the melting point is 139 °C.

Regarding `COc1ccc2nccc(CCCC3CCCNC3)c2c1` (stereo not drawn), the melting point amounted to 110 °C.

As to `O=C(O)COCN(c1ccc(CN2CCN(Cc3ccccc3)C(=O)C2=O)cc1)c1ncccn1`, the melting point fell in the range of 85 to 90 °C.

Consider `CCCCCCCCCCCCCCCCCCOc1cc(N)cc(N(CC(=O)O)CC(=O)O)c1`, for which the melting point lay in the range of 185 to 195 °C.

`COP(=O)(COS(=O)(=O)c1c(C)cccc1Cl)OC` yielded a melting point of 55 to 57.5 °C.

On to `CC(C)COc1nc(N)c2ncn(C3C=CCCC3)c2n1` (stereo not drawn), for which the melting point fell in the range of 132 to 135 °C.

`O=C(O)c1cc2c3c(c1)CCCC3CCC2` came in with a melting point of 208 to 209 °C.

`CC(=O)N1CCC(C(=O)Nc2ccc(-n3nc(C(F)(F)F)cc3C(F)(F)F)cc2)CC1` had a melting point of 94 to 95 °C.

On to `CCCc1c(OCCCOc2ccc(C(=O)OCC)cc2Cl)ccc(C(C)=O)c1O`, for which the melting point lay in the range of 101 to 102 °C.

In turn, `Cc1ccc2c(N)c3c(nc2c1)CCSC3` gave a melting point of 239 to 245 °C.

With `O=C(Nc1ccc(-c2ncc(-c3ccc(NC(=O)C4CCCCCC4)cc3)[nH]2)cc1)c1cccnc1`, the melting point lay in the range of 326 to 328 °C.

`COC(=O)C(c1cc2c(cc1Cl)OCO2)c1c[nH]c2cc(Br)ccc12` (stereo not drawn): the melting point lay in the range of 172 to 174 °C.

Take `O=S(=O)(c1ccc(Cl)cc1)c1ccc(-c2ccccc2)cc1`: the melting point was 169 °C.

The molecule `Nc1nc(NC2Cc3ccccc3N(S(=O)(=O)c3ccc(Cl)cc3Cl)C2)c2cn[nH]c2n1` (stereo not drawn) yielded a melting point of 153 to 163 °C.

`O=C(O)c1ccc2c(c1)ncn2-c1cc(Cl)ccc1O` had a melting point of 308 to 310 °C.

In turn, `CCOC(=O)c1cc([N+](=O)[O-])ccc1OCc1ccc2ccccc2n1` returned a melting point of 139 to 140 °C.

The molecule `O=Cc1cc(-c2ccccc2)c(=O)n2c1-c1sccc1CC2` had a melting point of 213 to 215 °C.

`CC(C)(C)OC(=O)NCCC(=O)NCc1cccc2c1CN(C1CCC(=O)NC1=O)C2=O` (stereo not drawn) yielded a melting point of 203 to 205 °C.

In the case of `CC(=O)n1ccc2c1CCn1ccnc1C2=C1CCN(C)CC1`, the melting point was 198 °C.

As for `CC(C)CCC(O)C(CC1CCCCC1)NC(=O)C(Cc1c[nH]cn1)N(C)C(=O)C(Cc1ccccc1)OC(=O)N1CCOCC1` (stereo not drawn), the melting point was in the range of 91 to 95 °C.

`Cc1nc(N2CCN(CC3CC3)C2=O)sc1C(=O)NCc1cccnn1` registered a melting point of 187 to 189 °C.

For the molecule `Cc1nc(C)c(Cl)c(NCc2nccc(SCCCSCCO)c2C)n1`, the melting point is 134 to 137 °C.

In turn, `CCCCCCNC(=O)Oc1ccc2c(c1)CCCN2C` returned a melting point of 50 °C.

In turn, `COC(=O)c1cc(C)cc(OC)c1C1=CC(=O)c2c(O)cccc2C1=O` had a melting point of 140 to 143 °C.

As for `O=C(NCCCn1cnc2cnc3ccccc3c21)c1ccccc1`, the melting point lay in the range of 188 to 190 °C.

Molecule `N#Cc1c(Br)c(Br)n(C#N)c1Br` registered a melting point of 195 to 198 °C.

Regarding `C#Cc1ccc(-c2ccccc2F)cc1`, the melting point lay within 28.5 to 31 °C.

As for `CC(C)S(=O)(=O)Nc1ccc(C(=O)Nc2ccc(Br)cc2)cc1`, the melting point lay within 213 to 214 °C.

Turning to `O[C@@H](CNCCOc1ccc2oc(-c3ccon3)cc2c1)COc1ccccc1`, the melting point lay in the range of 107 to 110 °C.

`CN(C1CCC(O)CC1)S(=O)(=O)c1ccc(Nc2nccc(Nc3ccc(F)cc3)n2)cc1` (stereo not drawn) displayed a melting point of 203 °C.

The molecule `CCNc1nc(N)nc2c1ncn2C1C=CC(CO)C1` (stereo not drawn) gave a melting point of 171 to 173 °C.

Molecule `O=C1NC(=O)C(c2c[nH]c3ccccc23)=C1c1c[nH]c2ccccc12` returned a melting point of 234 °C.

For `N#Cc1ncc(-c2ccc(Br)cc2)cn1`, the melting point lay within 202 to 204 °C.

As to `CCC1(CCCCN2CCN(c3ccc(F)cc3)CC2)C(=O)Nc2ccccc21` (stereo not drawn), the melting point fell in the range of 118 to 119 °C.

The molecule `c1nc(SC2CCCCC2)c2cc[nH]c2n1` displayed a melting point of 162 to 163 °C.

Take `CNS(=O)(=O)c1cccc(-c2cnc3[nH]cc(C(=O)C(C)(C)C)c3n2)c1`: the melting point lay within 245 to 247 °C.

Take `Cc1c(C=O)c2c(c(C)c1NC(=O)CC(C)(C)C)C(c1ccc(C(C)C)cc1)CS2` (stereo not drawn): the melting point lay within 134 to 140 °C.

Molecule `Cc1c(N2CCNC(C)C2)c(F)cc2c(=O)c(C(=O)O)cn(C3CC3)c12` (stereo not drawn) gave a melting point of 206 to 208 °C.

With `CCc1nn(-c2ccc(F)cc2)c2cc(C(=O)O)ccc12`, the melting point fell in the range of 204 to 205 °C.

Consider `CCOCCC(=O)C=P(c1ccccc1)(c1ccccc1)c1ccccc1`, for which the melting point is 63 to 65 °C.

Molecule `CN1CC(NC(=S)NC(=O)c2ccccc2)CC2c3cccc4[nH]cc(c34)CC21` (stereo not drawn) returned a melting point of 224 to 225 °C.

On to `CCOC(=O)c1cn2c3c(c(F)c(F)cc3c1=O)OCC2C` (stereo not drawn), for which the melting point was 257 to 258 °C.

`CNc1nc(-c2cccc(NC(=O)c3ccccc3OC)c2)c2cc(OC)c(OC)cc2n1` came in with a melting point of 194 to 196 °C.

As for `COc1cc(-c2cnc3[nH]cc(C(=O)C(=O)N(C)C)c3n2)cc(OC)c1OC`, the melting point lay within 227 to 228 °C.

Molecule `COc1ccc(N2CCN(Cc3coc4c(OC)cccc34)CC2)cc1` displayed a melting point of 126 to 127 °C.

`O=C(O)CCCOc1cccc(CNC(=O)c2nc3ccccc3c(=O)[nH]2)c1` had a melting point of 259 to 260 °C.

`CN(C)S(=O)(=O)c1ccc2c(c1)S(=O)(=O)NC2=O`: the melting point fell in the range of 198 to 200 °C.

The molecule `Cc1c(C#N)c(=O)oc2ccc(Br)cc12` showed a melting point of 187 to 192 °C.

For the molecule `C#CCN(c1ccc(C(=O)OC(C)(C)C)cc1)C1CCc2cc3nc(COC(=O)C(C)(C)C)[nH]c(=O)c3cc21` (racemic), the melting point stood at 134 °C.

In turn, `CCCCNC(=O)NS(=O)(=O)c1ccc(CCNC(=O)N2Cc3ccc(Cl)cc3C2=O)cc1` yielded a melting point of 208 to 210 °C.

Take `CC(=O)Oc1c(C(=O)N2CCc3ccccc32)c(=O)n2c3c(cc(N)cc13)OCC2`: the melting point is 220 to 225 °C.

Molecule `COCOc1ccc(C(C(c2ccccc2)c2ccc(F)cc2)C(F)(F)F)cc1` (stereo not drawn) registered a melting point of 85 to 88 °C.

On to `COC(=O)CCn1ncc(-c2ccccc2)c1-c1ccccc1`, for which the melting point is 72 to 74 °C.

`CN=C(ON1C(=O)c2ccccc2C1=O)c1ccccc1`: the melting point was in the range of 174 to 176 °C.

`CC(C#CCCc1ccccc1)N(O)C(N)=O` (stereo not drawn) returned a melting point of 113 to 114 °C.
